Counter-ions that a name gives are not always drawn.
Key:
[1] = tested on: Cellular Class I HDAC activity; test: Inhibition of cellular Class I HDAC activity; Cell (Lys-Ac) substrate, Jurkat E6-1 cells; type: cell-based; settings: Boc-Lys(Ac)-AMC substrate
Description: (§1) The potency of Class IIa Histone Deacetylase (HDAC) inhibitors was quantified by measuring the cellular histone deacetylase enzymatic activity using the fluorogenic substrate, Boc-Lys(TFA)-AMC. After penetration in Jurkat E6-1 cells, the substrate was deacetylated to Boc-Lys-AMC. After cell lysis and cleavage by trypsin, the fluorophore AMC was released from the deacetylated substrate only. The fluorescence of the sample was directly related to the histone deacetylase activity in the sample.
(§2) Jurkat E6.1 cells were cultured according to standard cell culture protocols in Jurkat E6.1 Growth Media (RPMI without phenol red, 10% FBS, 10 mM HEPES, and 1 mM Sodium Pyruvate). Jurkat E6.1 cells were counted using a Coulter Counter and resuspended in Jurkat E6.1 growth media at a concentration of 75,000 cells/35 μL. 35 μL or 75,000 cells was seeded into Greiner microtitre assay plates. The plates were then incubated at 37° C. and 5% CO2 while other assay components were being prepared.
(§3) Serial dilutions of the HDAC inhibitors and control reference compound (1-(5-(3-((4-(1,3,4-oxadiazol-2-yl)phenoxy)methyl)-1,2,4-oxadiazol-5-yl)thiophen-2-yl)-2,2,2-trifluoroethanone) were made by first resuspending the lyophilized compound to a final concentration of 10 mM in 100% DMSO. Stocks of 70 μL aliquots of the 10 mM compound in DMSO were prepared and stored at −20° C. From one stock aliquot of each tested compound and the reference compound, a 16-point serial dilution was prepared according to Table 1 using a 125 μL 16-channel Matrix multi-channel pipette.
(§4) 2 μL (200×) of each diluted solution and each control (full activity: 100% DMSO alone or full inhibition 1 mM) was stamped into V-bottom polypropylene 384-well compound plates using either the Bravo, Janus, or 12.5 μL 16-channel Matrix multi-channel pipette. Each well with the 200× compound solution was diluted 1:20 by the addition of 38 μL Jurkat assay buffer+DMSO (9.5% DMSO, RPMI without phenol red, 0.09% FBS, 9 mM Hepes, and 0.9 mM Sodium Pyruvate equilibrated to r.t.)
(§5) 5× (500 μM) substrate was prepared just prior to the addition to the assay. The 5× substrate was prepared by diluting a 100 mM Boc-Lys(TFA)-AMC in DMSO solution 1:200 by adding it drop-wise to Jurkat assay medium (RPMI without phenol red, 0.1% FBS, 10 mM Hepes, and 1 mM Sodium Pyruvate equilibrated to 37° C.) while vortexing at slow speed to prevent precipitation.
(§6) 10 mL of 3× lysis buffer was prepared with 8.8 mL of 3× stock lysis buffer (50 mM Tris-HCl, pH 8.0, 137 mM NaCl, 2.7 mM KCl, 1 mM MgCl2, 1% Nonidet P40 Substitute equilibrated to r.t.) and 1.2 mL of 3 mg/mL Trypsin equilibrated to r.t.
(§7) 5 μL of each solution of 1:20 diluted compound from above was transferred to the Greiner microtitre assay plates with 75,000 cells/well using the Bravo. Cells were then incubated for 2 hours at 37° C. and 5% CO2. The assay was then started by adding 10 μL of 5× (500 μM) substrate to the assay plate using either the Bravo or 16-channel Matrix multi-channel pipette. The cells were then incubated for 3 hours at 37° C. and 5% CO2. Next, 25 μL of 3× lysis buffer was added to each well using either the 125 μL 16 channel pipette or the Bravo. The assay plate was then incubated overnight (15-16 hours) at 37° C. and 5% CO2. The following day, the plates were shaken on an orbital shaker for 1 minute at 900 rpm. Finally the top read fluorescence (Excitation: 355 nm, Emission: 460 nm) was measured using PerkinElmer EnVision.
Example 30: Analysis of Inhibition of Cellular Class I HDAC Activity with Class IIa Histone Deacetylase (HDAC) Inhibitors; Cell (Lys-Ac) Substrate
The Class I HDAC activity of Class IIa Histone Deacetylase (HDAC) inhibitors was quantified by measuring the cellular histone deacetylase enzymatic activity using the fluorogenic substrate, Boc-Lys(Ac)-AMC. This was performed according to the procedure in Example 29, using Boc-Lys(Ac)-AMC substrate in place of Boc-Lys(TFA)-AMC.

[2] = tested on: Cellular Class IIa HDAC activity; test: Inhibition of cellular Class IIa HDAC activity; Cell (Lys-TFA) substrate, Jurkat E6-1 cells; type: cell-based; settings: Boc-Lys(TFA)-AMC substrate
Description: Example 29: Analysis of Inhibition of Cellular Class IIa HDAC Activity with Class IIa Histone Deacetylase (HDAC) Inhibitors; Cell (Lys-TFA) Substrate
as §1
Jurkat E6.1 Cell Culture and Plating.
as §2
(§8) Serially Dilute HDAC Inhibitor Compounds.
as §3, §4
Prepare 5× (500 μM) Boc-Lys(TFA)-AMC Substrate.
as §5, §6, §7

[3] = target: human catalytic domain HDAC4 protein (amino acids 648-1032) (Homo sapiens (Human), UniProt P56524); test: HDAC4 catalytic domain enzymatic activity, fluorogenic substrate Boc-Lys(TFA)-AMC; settings: read-out: HDAC4 Biochemical IC50
human catalytic domain HDAC4 protein (amino acids 648-1032), sequence (P56524 648-1032): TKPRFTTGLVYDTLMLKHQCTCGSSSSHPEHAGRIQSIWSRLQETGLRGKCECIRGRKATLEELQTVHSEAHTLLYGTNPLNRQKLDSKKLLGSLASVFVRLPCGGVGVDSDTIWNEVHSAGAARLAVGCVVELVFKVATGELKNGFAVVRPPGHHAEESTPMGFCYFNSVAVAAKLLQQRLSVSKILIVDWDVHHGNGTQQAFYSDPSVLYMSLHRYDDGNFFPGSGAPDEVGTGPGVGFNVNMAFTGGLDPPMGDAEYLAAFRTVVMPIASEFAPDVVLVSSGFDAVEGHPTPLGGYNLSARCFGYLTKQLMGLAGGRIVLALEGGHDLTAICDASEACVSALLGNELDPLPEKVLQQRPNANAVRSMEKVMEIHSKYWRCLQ
Description: Example 25: Analysis of Inhibition of HDAC4 with Class IIa Histone Deacetylase (HDAC) Inhibitors
The potency of Class IIa Histone Deacetylase (HDAC) inhibitors was quantified by measuring the Histone Deacetylase 4 (HDAC4) catalytic domain enzymatic activity using the fluorogenic substrate, Boc-Lys(TFA)-AMC. The substrate was deacetylated to Boc-Lys-AMC by HDAC4. […] The fluorescence of the sample was directly related to the histone deacetylase activity in the sample.
as §8
as §3, with “dimethyl sulfoxide (DMSO).” for “DMSO.”, “60” for “70”, “pipette (Matrix Technologies Ltd).” for “pipette.”
2 μL (200×) of each diluted solution and each control (full activity: 100% DMSO alone or full inhibition 1 mM) was stamped into V-bottomed polypropylene 384-well compound plates using either the Bravo (384-well head from Agilent) or 12.5 μL 16-channel Matrix multi-channel pipette (Matrix Technologies Ltd). Each well with the 200× compound solution was diluted 1:20 by the addition of 38 μL assay buffer+DMSO (10.5% DMSO, 45 mM Tris-HCl, 123 mM NaCl, 2.4 mM KCl, and 0.9 mM MgCl2 at pH 8.0 and equilibrated to r.t.).
Prepare HDAC4 Catalytic Domain Enzyme (0.2 μg/mL).
The HDAC4 catalytic domain enzyme was human catalytic domain HDAC4 protein (amino acids 648-1032) with a C-terminal 6× histidine tag, produced by BioFocus. A working solution of enzyme was prepared from a […] stock aliquot of HDAC4 catalytic domain (thawed on ice) diluted to 0.2 μg/mL with assay buffer (50 mM Tris-HCl, 137 mM NaCl, 2.7 mM KCl, and 1 mM MgCl2 at pH 8 and equilibrated to r.t.) just prior to the addition of the enzyme to the assay.
Prepare 5× (50 μM) Boc-Lys(TFA)-AMC Substrate.
5× (50 μM) substrate was prepared just prior to the addition to the assay. A 1 mM substrate stock was made by diluting a 100 mM Boc-Lys(TFA)-AMC in DMSO solution 1:100 by adding it drop-wise to assay buffer (equilibrated to r.t.) while vortexing at slow speed to prevent precipitation. The 5× substrate was prepared by diluting the 1 mM substrate solution 1:20 by adding it drop-wise to assay buffer (equilibrated to r.t.) while vortexing at slow speed to prevent precipitation.
Prepare 3× (30 μM) Developer/Stop Solution.
3× (30 μM) Developer/Stop Solution was prepared just prior to addition to the plate by diluting a stock solution of 10 mM reference compound 1:333 in 25 mg/mL trypsin (PAA Laboratories Ltd.) equilibrated to r.t.
5 μL of each solution of 1:20 diluted compound from above was transferred to a clear bottomed, black, 384-well assay plate using the Bravo or the Janus (384-well MDT head from Perkin Elmer). Using a 16-channel Matrix multi-channel pipette, 35 μL of the working solution of HDAC4 catalytic domain enzyme (0.2 μg/mL in assay buffer) was transferred to the assay plate. The assay was then started by adding 10 μL of 5× (50 μM) substrate to the assay plates using either the Bravo, Janus or 16-channel Matrix multi-channel pipette. The assay plate was then shaken for two minutes on an orbital shaker at 900 rpm (rotations per minute). Next the plate was incubated for 15 minutes at 37° C. The reaction was stopped by adding 25 μL of 3× (30 μM) developer/stop solution to the assay plates using either the Bravo, Janus or a 16-channel Matrix multi-channel pipette. Assay plates were then shaken for 5 minutes on an orbital shaker at 1200 rpm. Next, the assay plates were incubated at 37° C. for 1 hour in a tissue culture incubator. […]

An IC50 [1] of 3700 nM, an IC50 [2] of 57 nM and an IC50 [3] of 21 nM were found for `C[C@H](CN1CCCC(OC(F)F)C1)NC(=O)c1ccc(-c2noc(C(F)(F)F)n2)cc1` (single isomer, unassigned) [Example 9] in this work.
An IC50 [1] of 1500 nM, an IC50 [2] of 7 nM and an IC50 [3] of 3 nM were found for `C[C@H](CN1CCCC(OC(F)F)C1)NC(=O)c1ccc(-c2noc(C(F)(F)F)n2)cc1` (single isomer, unassigned) [Example 10] in this work.
An IC50 [1] of 7800 nM, an IC50 [2] of 150 nM and an IC50 [3] of 22 nM were found for `C[C@H](CN1CC2CCCC21)NC(=O)c1ccc(-c2noc(C(F)(F)F)n2)cc1` (single isomer, unassigned) [Example 20] in this work.
An IC50 [1] of 3100 nM, an IC50 [2] of 16 nM and an IC50 [3] of 4 nM were found for `C[C@H](CN1CC2CCCC21)NC(=O)c1ccc(-c2noc(C(F)(F)F)n2)cc1` (single isomer, unassigned) [Example 21] in this work.
An IC50 [1] greater than 50000 nM, an IC50 [2] of 1600 nM and an IC50 [3] of 100 nM were found for `Cc1cc(C(=O)N[C@H](C)CN2CCC[C@@H]2C)ccc1-c1noc(C(F)(F)F)n1` [Example 1, (2S)-2-Methyl-1-((R)-2-(3-methyl-4-(5-(trifluoromethyl)-1,2,4-oxadiazol-3-yl)benzamido)propyl)pyrrolidin-1-ium formate] in this work.
An IC50 [1] of 4900 nM, an IC50 [2] of 330 nM and an IC50 [3] of 140 nM were found for `O=C(NCCN1CC2CCC(C2)C1)c1ccc(-c2noc(C(F)(F)F)n2)cc1` [Example 2, N-(2-(3-Azabicyclo[3.2.1]octan-3-yl)ethyl)-4-(5-(trifluoromethyl)-1,2,4-oxadiazol-3-yl)benzamide] in this work.
An IC50 [1] of 4900 nM, an IC50 [2] of 140 nM and an IC50 [3] of 39 nM were found for `C[C@H](CN1Cc2ccccc2C1)NC(=O)c1ccc(-c2noc(C(F)(F)F)n2)cc1` [Example 3, (R)—N-(1-(Isoindolin-2-yl)propan-2-yl)-4-(5-(trifluoromethyl)-1,2,4-oxadiazol-3-yl)benzamide] in this work.
An IC50 [1] of 6900 nM, an IC50 [2] of 51 nM and an IC50 [3] of 8 nM were found for `C[C@H](CN1CC2CC2C1)NC(=O)c1ccc(-c2noc(C(F)(F)F)n2)cc1` (stereo partly drawn) [Example 4, N-((2R)-1-(3-Azabicyclo[3.1.0]hexan-3-yl)propan-2-yl)-4-(5-(trifluoromethyl)-1,2,4-oxadiazol-3-yl)benzamide] in this work.
An IC50 [1] of 25700 nM, an IC50 [2] of 710 nM and an IC50 [3] of 48 nM were found for `O=C(N[C@H](CN1CCCC1)C1CC1)c1ccc(-c2noc(C(F)(F)F)n2)cc1` [Example 5, (S)—N-(1-Cyclopropyl-2-(pyrrolidin-1-yl)ethyl)-4-(5-(trifluoromethyl)-1,2,4-oxadiazol-3-yl)benzamide] in this work.
An IC50 [1] greater than 50000 nM, an IC50 [2] of 750 nM and an IC50 [3] of 77 nM were found for `O=C(N[C@@H](CN1CCCC1)C1CC1)c1ccc(-c2noc(C(F)(F)F)n2)cc1` [Example 6, (R)—N-(1-Cyclopropyl-2-(pyrrolidin-1-yl)ethyl)-4-(5-(trifluoromethyl)-1,2,4-oxadiazol-3-yl)benzamide] in this work.
An IC50 [1] of 2400 nM, an IC50 [2] of 18 nM and an IC50 [3] of 9 nM were found for `C[C@H](CN1CCc2ccccc2C1)NC(=O)c1ccc(-c2noc(C(F)(F)F)n2)cc1` [Example 7, (R)—N-(1-(3,4-Dihydroisoquinolin-2(1H)-yl)propan-2-yl)-4-(5-(trifluoromethyl)-1,2,4-oxadiazol-3-yl)benzamide] in this work.
An IC50 [1] of 710 nM, an IC50 [2] of 39 nM and an IC50 [3] of 14 nM were found for `C[C@H](CN1CC(c2ccccc2)C1)NC(=O)c1ccc(-c2noc(C(F)(F)F)n2)cc1` [Example 8, (R)—N-(1-(3-Phenylazetidin-1-yl)propan-2-yl)-4-(5-(trifluoromethyl)-1,2,4-oxadiazol-3-yl)benzamide] in this work.
An IC50 [1] of 970 nM, an IC50 [2] of 9 nM and an IC50 [3] of 3 nM were found for `C[C@H](CN1CCCC2(CC2)C1)NC(=O)c1ccc(-c2noc(C(F)(F)F)n2)cc1` [Example 11, (R)—N-(1-(5-Azaspiro[2.5]octan-5-yl)propan-2-yl)-4-(5-(trifluoromethyl)-1,2,4-oxadiazol-3-yl)benzamide] in this work.

— patent US10053434B2, “Histone deacetylase inhibitors and compositions and methods of use thereof” (CHDI Foundation, Inc., priority 2015, dated 2018)
